Results on five molecules are retold here after patent US9358276B2, “Methods of diagnosing and treating small intestinal bacterial overgrowth (SIBO) and SIBO-related conditions” (Cedars-Sinai Medical Center, priority 1999, dated 2016).

Marks after values point to notes of the source that are not given here.

For one test, the system named is intestinal transit. In words: Intestinal transit in multi-fistulated dogs, cumulative % recovery of 99mTc-DTPA. The class given is in vivo, dog. The settings on record: for Effect of 5-HT delivered to distal gut on intestinal transit time: n = 2 dogs. An excerpt: The experiments described below are based on a previously described chronic multi-fistulated dog model, employing surgically fistulated male or female mongrel dogs weighing about 25 kg each. (Lin, H. C. et al., Inhibition of gastric emptying by glucose depends on length of intestine exposed to nutrient, Am. J. Physiol. 256:G404-G411 [1989]). The small intestines of the dogs were each about 300 cm long from the pylorus to the ileal-cecal valve. The duodenal fistula was situated 15 cm from the pylorus; the mid-gut fistula was situated 160 cm from the pylorus. Occluding Foley catheters (balloon catheters that are inflated to produce a water-tight seal with the lumenal surface) were placed into the distal limb of a duodenal fistula and a mid-gut fistula, fat or other test agents were administered lumenally to the thus compartmentalized Aproximal≅ section of the gut, i.e., between the fistulas, or to the compartmentalized Adistal≅ section of the gut, i.e., beyond the mid-gut fistula. Perfusate was pumped into a test section through the catheter at a rate of 2 mL/minute. Test agents were administered along with buffer perfusate, but some test agents were administered intravenously, where specifically noted.
Intestinal transit measurements were made by tracking the movement of a liquid marker across the approximately 150 cm intestinal test segment by delivering about 20 μCi ^99mTc chelated to diethyltriamine pentaacetic acid (DTPA)(Cunningham, K. M. et al., Use of technicium-99m (V)thiocyanate to measure gastric emptying of fat, J. Nucl. Med. 32:878-881 [1991]) as a bolus into the test segment after 60 minutes of a 90-minute perfusion. The output from the mid-gut fistula was collected every 5 min thereafter for 30 minutes, which period is illustrated in FIGS. 9-23. Using a matched dose of ^99mTc to represent the original radioactivity (Johansson, C., Studies of gastrointestinal interactions, Scand. J. Gastroenterol. 9(Suppl 28):1-60 [1974]; Zierler, K., A simplified explanation of the theory of indicator dilution for measurement of fluid flow and volume and other distributive phenomena, Bull. John Hopkins 103:199-217 [1958]), the radioactivity delivered into the animal as well as the radioactivity of the recovered fistula output were all measured using a gamma well counter. After correcting all counts to time zero, intestinal transit was calculated as the cumulative percent recovery of the delivered ^99mTc-DTPA. This method has been well validated over the years and appreciated for its advantage of minimal inadvertent marker loss. […] There was a very high level of marker recovery, with 90% of the marker recovered by 30 minutes and 98% of the marker recovered by 45 minutes.

The subject of test [1] is release of 5-HT from the proximal gut. In words: 5-HT released by the proximal gut (ELISA of mid-gut fistula output). The class given is in vivo, dog. The settings on record: 5-HT 0.05 mg/kg/h to distal gut; control 156 μg; n=1. As to the method:
To test the hypothesis that fat in the distal gut causes the release of 5-HT in the proximal gut, the amount of 5-HT collected from the output of the mid-gut fistula (proximal gut 5-HT) over a 90-minute period of buffer perfusion through both the duodenal and mid-gut fistulas (2 mL/min); buffer (control) or oleate (60 mM) was administered to the distal gut (n=1). The amount of 5-HT was determined using an ELISA kit specific for 5-HT (Sigma; Graham-Smith, D. G., The carcinoid syndrome, In: Topics in Gastroenterology, Truclove, S. C. and Lee, E. (eds.), Blackwells, London, p. 275 [1977]; Singh, S. M. et al., Concentrations of serotonin in plasma-a test for appendicitis?, Clin. Chem. 34:2572-2574 [1988]). The amount of 5-HT released by the proximal gut increased in response to fat in the distal gut from 100 μg in the control (buffer minus oleate) to 338 μg (buffer plus oleate to distal gut), showing that 5-HT is released in the proximal gut in response to fat in the distal gut. Thus, the release of 5-HT by the proximal gut can serve as a relayed signal for fat in the distal gut. The relayed release of 5-HT in the proximal gut in response to fat in the distal gut is consistent with Example 14(2), showing that slowing of intestinal transit by fat depends on an efferent 5-HT-mediated pathway to the proximal gut.
To test the hypothesis that 5-HT in the distal gut causes the release of 5-HT in the proximal gut, the amount of 5-HT collected from the output at the mid-gut fistula (Proximal gut 5-HT) over a 90-minute period of buffer perfusion through both the duodenal and mid-gut fistulas (2 mL/min each) was compared in the presence or absence of 5-HT (0.05 mg/kg/h) administered to the distal gut (n=1). 5-HT concentration was determined using an ELISA kit specific for 5-HT (Sigma). The amount of 5-HT released by the proximal gut increased from 156 μg in the control (minus distal 5-HT) to 450 μg (plus 5-HT to distal gut), implying that 5-HT is released by the proximal gut in response to 5-HT in the distal gut. Thus, the release of 5-HT by the proximal gut can serve as a relayed signal for distal gut 5-HT. This relayed release of 5-HT in the proximal gut explains the results of Example 14(6) showing that the slowing of intestinal transit by distal gut 5-HT was abolished by ondansetron in the proximal gut (efferent limb of response) as well as in the distal gut (afferent limb of response).
To test the hypothesis that the proximal gut releases 5-HT in response to lipid in the distal gut, we compared the amount of 5-HT in the output of the midgut fistula (i.e., proximal gut 5-HT) with buffered saline (control) or oleate in the distal gut. The amount of 5-HT collected over 90 min was measured using a 5-HT-specific ELISA test kit, as described herein above. Four dogs were tested.
The amount of 5-HT released from the proximal gut in response to intravenous PYY or buffered saline (Control) during buffer perfusion (2 mL/min over 90 minutes) through both the duodenal and mid-gut fistulas was measured to test the hypothesis that intravenous PYY (0.8 mg/kg/h) causes the release of 5-HT in the proximal gut. 5-HT was measured as in Example 14(9) above. The amount of 5-HT released by the proximal gut increased from 140.1 μg (Control) to 463.1 μg in response to intravenous PYY.
A general note: ELISA stands for enzyme-linked immunosorbent assay.

In a further test the test system is ileal brake. The settings on record: rats, Brown et al. 1993, cited from earlier work; for ileal brake induced by ileal infusion of lipid / intestinal transit of a baked bean meal: subcutaneous administration.
In test [2] the test system is SIBO. The experiment in a line: Comparison of antibiotic regimes for eradicating SIBO, follow-up lactulose breath hydrogen test (LBHT). Particulars: follow-up LBHT. The class given is in vivo, human. The method, then: Subjects were tested after an overnight fast. […] Each breath sample was then analyzed for hydrogen content with a gas chromatograph (Quintron Model DP, Quintron Instrument Co., Division of E.F. Brewer Co, Menomonee Falls, Wis. 53051), standardized using a QuinGas standard as instructed by the manufacturer. Hydrogen peaks were plotted before and after an antimicrobial treatment regimen for comparison. The normal range for the second hydrogen peak was 0 to 20 ppm. Subjects referred to the Cedars-Sinai GI Motility Program for a lactulose breath hydrogen test (LBHT) to assess SIBO were entered into a database. Those that tested positive for SIBO were given antibiotic treatment by their referring physician and in some cases, returned for a follow-up LBHT to assess eradication of SIBO. During the follow-up LBHT, subjects were asked which antibiotic they were given to treat their SIBO. The eradication rate of each antibiotic was evaluated. Of the 771 subjects in the database, 561 (73%) tested positive for SIBO. […] (See Table 1 below). […] None of the commonly used antibiotics was universally successful in eradicating overgrowth.

Test [3] has as its system SIBO. The experiment in a line: Case: autism with bowel symptoms, Augmentin. The class given is in vivo, human. The settings on record: one patient.

In the case of `NCCc1c[nH]c2ccc(O)cc12` [5-HT, 5-hydroxytryptamine], the “Effect of 5-HT delivered to distal gut on intestinal transit time” value with intestinal transit (0.033 mg/kg/h × 90 min, 0 dose 68.5 ± 1.0) came to 69.6 ± 4.2 min; in the test with intestinal transit (0.05 mg/kg/h × 90 min) it was 33.5 ± 1.5 min; in the test on intestinal transit (0.066 mg/kg/h × 90 min), 15.2 ± 0.5 min; with intestinal transit (0.1 mg/kg/h × 90 min), 16.1 ± 4.9 min; in the test with intestinal transit (0.3 mg/kg/h × 90 min), 73.8 ± 0.6 min. Further, the marker recovery in the test on intestinal transit (0.1 mg/kg/h 5-HT into distal gut, Saline-Dist 76.1±1.3%) was 35.2±2.3%; in the test with intestinal transit (0.1 mg/kg/h 5-HT into proximal gut, Saline-Prox 85.0±7.3%, four dogs), 20.1±4.5%; in the test on intestinal transit (5-HT 0.05 mg/kg/h in distal gut, Buffer Control 79.4±4.1%) it was 37.0±1.8%; in the test with intestinal transit (5-HT 0.05 mg/kg/h to distal gut, Buffer Control 83.3±3.3%, n=2), 36.1±2.3%; with intestinal transit (5-HT 0.1 mg/kg/h to distal gut, buffer control 76.1±4.7%, four dogs) it was 35.2±2.2%; in the test with intestinal transit (5-HT in distal gut, 2 mg (0.033 mg/kg/h) over 90 min, buffer 81.2%, n=1), 73.8%. The marker recovery with intestinal transit (5-HT in distal gut, 3 mg (0.05 mg/kg/h), n=1) is listed as 53.1%; in the test with intestinal transit (5-HT in distal gut, 4 mg (0.066 mg/kg/h), n=1), 11.6%; in the test with intestinal transit (5-HT in proximal gut, 0.033 mg/kg/h), “not significantly different from the buffer control”; in the test on intestinal transit (5-HT in proximal gut, 0.05 mg/kg/h), 33.2±14.0%; with intestinal transit (5-HT in proximal gut, 0.066 mg/kg/h, buffer 75.0±4.4%, four dogs), 16.9±+3.7%. Further, the “proximal intestinal transit, cumulative % marker recovered” value in the test on intestinal transit (5-HT 0.1 mg/kg/h distal gut, Saline (i.v.)) came to 28.27 ± 5.03%. Moreover, the “amount of 5-HT released by the proximal gut” value in test [1] was determined as 450 µg.

As to `CN1C2CCCC1CC(NC(=O)c1nn(C)c3ccccc13)C2` (stereo not drawn) [granisetron], in the test on ileal brake, the “ileal brake induced by ileal infusion of lipid” value was “abolished the ileal brake” and the “intestinal transit of a baked bean meal” value is listed as “delayed”.

Consider `Cc1nccn1CC1CCc2c(c3ccccc3n2C)C1=O` (stereo not drawn) [ondansetron], for which the “Transit Across Proximal Gut (Cumulative % Marker Recovered)” value in the test on intestinal transit (Buffer + NE + Ond perfused lumenally 0.7 mg/kg/h) was 63.0 ± 4.4^b %. The marker recovery with intestinal transit (IV PYY + ondansetron 0.7 mg/kg/h in proximal gut) was determined as 78.3±4.8%; in the test on intestinal transit (IV PYY + ondansetron in distal gut), 12.9±12.9%; in the test with intestinal transit (distal gut 5-HT + ondansetron 0.7 mg/kg bolus in distal gut), 79.5±2.4%; in the test on intestinal transit (distal gut 5-HT + ondansetron 0.7 mg/kg bolus in proximal gut), 73.8±9.5%; in the test on intestinal transit (ileal brake + 6.25 mg ondansetron bolus, proximal gut) it was 35.4%; in the test on intestinal transit (ileal brake + 12.5 mg ondansetron bolus, proximal gut), 55.8%. Besides, the marker recovery in the test on intestinal transit (ileal brake + 25 mg ondansetron bolus, proximal gut) is recorded as 77.6%; in the test on intestinal transit (ileal brake + intravenous ondansetron 0.15 mg/kg/1.5 h, n=2), 13±2.0%; in the test with intestinal transit (ileal brake + lumenal ondansetron 0.7 mg/kg/h in proximal gut, n=2) it was 78±2.4%; in the test with intestinal transit (ileal brake + ondansetron in distal gut, n=4) it was 22.8±2.6%; in the test with intestinal transit (ileal brake + ondansetron in proximal gut, n=4), 68.5±2.7%; in the test with intestinal transit (intravenous norepinephrine + ondansetron 0.7 mg/kg/h in proximal gut), 63.4%. Moreover, the marker recovery came to 57.9±15.9% in the test on intestinal transit (lumenal buffer + lumenal ondansetron, Buffer-NS 96.0±4.0%) and 73.7±10.6% in the test with intestinal transit (lumenal oleate + lumenal ondansetron 0.7 mg/kg bolus, proximal gut). Besides, the “ileal brake induced by ileal infusion of lipid” value in the test with ileal brake is on record as “abolished the ileal brake”. In addition, the “intestinal transit of a baked bean meal” value in the test with ileal brake is on record as “delayed”.

As to Augmentin, in the test on SIBO [2], the “% Patients with SIBO Eradicated” value is reported as 50%. Besides, in the test with SIBO [3], the concentration and behavior result was “some positive concentration and behavioral changes”. In addition, the bowel habits result with SIBO [3] (500 mg twice a day for ten days) is given as “substantial improvement”.

`C=CCN1CC[C@]23c4c5ccc(O)c4O[C@H]2C(=O)CC[C@@]3(O)[C@H]1C5` [naloxone]: the marker recovery with intestinal transit (60 mM oleate in proximal gut with 3 mg naloxone) was found to be 41.0±5.2%; in the test on intestinal transit (60 mM oleate in proximal gut with 6 mg naloxone), 62.8±8.2%; in the test on intestinal transit (60 mM oleate in proximal gut with 12 mg naloxone), 60.6±6.1%; in the test with intestinal transit (buffer in proximal gut with 6 mg naloxone, no fat, without naloxone 81.3±6.1%, n=3), 88.0±1.3%; with intestinal transit (distal gut 5-HT + naloxone 6 mg in proximal gut) it was 90.1±4.6%; in the test on intestinal transit (ileal brake + 6 mg naloxone to distal gut), 29.4±5.4%. Further, the marker recovery with intestinal transit (ileal brake + 6 mg naloxone to proximal gut) is recorded as 76.2±5.2%. Moreover, the ileal brake entry in the test with ileal brake is “abolish the ileal brake”.
